In patent US10072026B2, “Crystalline form of 3-((1R,3s,5S)-3-((7-((5-methyl-1H-pyrazol-3-yl)amino)-1,6-naphthyridin-5-yl)amino)-8-azabicyclo[3.2.1]octan-8-yl)propanenitrile” (priority 2015, dated 2018):

How the values were obtained:
[1] = test system: IL-13 induced STAT6 phosphorylation in BEAS-2B human lung epithelial cells; assay: AlphaScreen cellular JAK potency assay, BEAS-2B
JAK2 = JAK2 (Homo sapiens (Human), UniProt O60674); assay: LanthaScreen JAK biochemical assay (JAK2); settings: for Ki: read-out: JAK 2 (pKi) (converted)
JAK1 = JAK1 (Homo sapiens (Human), UniProt P23458); assay: LanthaScreen JAK biochemical assay (JAK1); settings: for Ki: read-out: JAK 1 (pKi) (converted)
[2] = test system: IL-4 induced STAT6 phosphorylation in THP-1 human monocytic cells; assay: Cellular JAK potency assay, THP-1
[3] = Homo sapiens, BEAS-2B, read-out: BEAS2B pIC50 (converted)
[4] = Homo sapiens, THP-1, read-out: THP-1 IL4 pIC50 (converted)
[5] = IL-13 induced STAT6 phosphorylation, BEAS-2B cells
[6] = IL-4 induced STAT6 phosphorylation, THP-1 cells
[7] = BEAS-2B cells, IL-13 induced STAT6 phosphorylation
[8] = THP-1 cells, IL-4 induced STAT6 phosphorylation

JAK2, sequence (O60674 whole entry): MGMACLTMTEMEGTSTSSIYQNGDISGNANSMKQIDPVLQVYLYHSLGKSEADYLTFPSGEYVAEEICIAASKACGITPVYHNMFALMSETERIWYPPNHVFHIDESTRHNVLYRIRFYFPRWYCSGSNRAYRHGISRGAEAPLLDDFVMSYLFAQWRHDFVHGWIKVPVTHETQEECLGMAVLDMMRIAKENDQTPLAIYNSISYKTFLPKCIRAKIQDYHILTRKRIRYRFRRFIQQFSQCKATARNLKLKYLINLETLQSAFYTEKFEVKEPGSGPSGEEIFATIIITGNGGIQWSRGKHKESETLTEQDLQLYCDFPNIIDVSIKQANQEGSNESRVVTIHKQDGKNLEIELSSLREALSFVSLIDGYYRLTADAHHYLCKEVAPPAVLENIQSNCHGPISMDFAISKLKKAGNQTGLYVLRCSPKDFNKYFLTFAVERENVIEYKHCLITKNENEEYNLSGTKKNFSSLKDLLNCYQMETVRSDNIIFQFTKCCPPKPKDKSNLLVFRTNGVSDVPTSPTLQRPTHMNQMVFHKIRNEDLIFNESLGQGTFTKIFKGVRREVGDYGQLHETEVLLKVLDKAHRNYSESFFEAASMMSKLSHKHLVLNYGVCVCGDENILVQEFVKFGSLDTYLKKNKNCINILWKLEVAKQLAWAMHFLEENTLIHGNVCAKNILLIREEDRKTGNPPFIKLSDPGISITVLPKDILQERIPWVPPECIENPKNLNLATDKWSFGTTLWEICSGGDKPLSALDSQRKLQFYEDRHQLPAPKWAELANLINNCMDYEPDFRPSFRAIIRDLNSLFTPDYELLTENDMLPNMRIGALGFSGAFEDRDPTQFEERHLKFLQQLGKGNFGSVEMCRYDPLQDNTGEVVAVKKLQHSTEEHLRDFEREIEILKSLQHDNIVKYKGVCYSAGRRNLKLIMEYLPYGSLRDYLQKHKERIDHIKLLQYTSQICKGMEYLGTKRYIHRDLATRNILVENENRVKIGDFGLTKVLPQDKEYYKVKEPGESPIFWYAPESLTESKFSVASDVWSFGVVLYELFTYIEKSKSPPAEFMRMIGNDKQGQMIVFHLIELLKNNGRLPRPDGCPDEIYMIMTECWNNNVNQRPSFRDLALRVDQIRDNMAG
JAK1, sequence (P23458 whole entry): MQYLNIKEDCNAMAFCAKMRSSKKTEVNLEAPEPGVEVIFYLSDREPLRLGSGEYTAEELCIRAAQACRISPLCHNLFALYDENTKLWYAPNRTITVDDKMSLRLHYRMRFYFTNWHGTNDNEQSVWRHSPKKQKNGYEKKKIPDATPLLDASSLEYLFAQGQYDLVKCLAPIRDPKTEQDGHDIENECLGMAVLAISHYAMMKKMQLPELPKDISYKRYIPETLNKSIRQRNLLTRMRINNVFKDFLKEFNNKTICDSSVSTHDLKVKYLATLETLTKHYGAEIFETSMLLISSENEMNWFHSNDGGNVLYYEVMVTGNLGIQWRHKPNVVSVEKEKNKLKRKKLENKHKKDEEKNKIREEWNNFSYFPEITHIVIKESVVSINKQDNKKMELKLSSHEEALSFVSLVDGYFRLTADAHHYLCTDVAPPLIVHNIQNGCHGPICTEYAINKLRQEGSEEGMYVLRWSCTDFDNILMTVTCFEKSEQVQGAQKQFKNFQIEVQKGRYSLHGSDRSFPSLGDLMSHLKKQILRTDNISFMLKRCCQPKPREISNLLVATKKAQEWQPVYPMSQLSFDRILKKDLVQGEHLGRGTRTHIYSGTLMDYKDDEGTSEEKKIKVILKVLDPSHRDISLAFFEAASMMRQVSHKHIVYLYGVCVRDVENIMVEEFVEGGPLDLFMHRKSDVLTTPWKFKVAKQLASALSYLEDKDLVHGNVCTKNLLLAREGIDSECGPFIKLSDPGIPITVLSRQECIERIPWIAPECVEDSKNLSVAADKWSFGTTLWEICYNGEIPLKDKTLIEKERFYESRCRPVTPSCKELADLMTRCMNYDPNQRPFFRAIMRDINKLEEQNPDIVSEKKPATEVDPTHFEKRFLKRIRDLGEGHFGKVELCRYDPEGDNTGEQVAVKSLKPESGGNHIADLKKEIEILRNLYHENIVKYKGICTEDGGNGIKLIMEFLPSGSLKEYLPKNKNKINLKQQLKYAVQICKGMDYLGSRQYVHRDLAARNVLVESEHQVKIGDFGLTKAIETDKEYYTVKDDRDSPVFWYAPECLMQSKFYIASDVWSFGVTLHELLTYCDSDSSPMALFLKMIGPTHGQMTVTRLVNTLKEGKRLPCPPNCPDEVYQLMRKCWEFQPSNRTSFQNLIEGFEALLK

| Structure (SMILES) | IC50 [1, 3] | Ki (JAK2) | Ki (JAK1) | IC50 [2, 4] | BEAS2B pIC50 [1, 5] | JAK 2 (pKi) (JAK2) | JAK 1 (pKi) (JAK1) | THP-1 IL4 pIC50 [2, 6] | BEAS2B pIC50 [1, 7] | THP-1 IL4 pIC50 [2, 8] |
| --- | --- | --- | --- | --- | --- | --- | --- | --- | --- | --- |
| CCN1CC(S(=O)(=O)N2[C@@H]3CC[C@H]2C[C@H](Nc2nc(Nc4cc(C)[nH]n4)cc4ncccc24)C3)C1 [Example 4-10] | 31.6 to 200 nM | 0.1 to 1 nM | 0.1 to 1 nM | 31.6 to 200 nM |  |  |  |  |  |  |
| Cc1cc(Nc2cc3ncccc3c(N[C@@H]3C[C@H]4CCC[C@@H](C3)N4CC(C)C)n2)n[nH]1 [Example 1-43] |  |  |  |  | A (A represents a pEC50 value≥7.5 (EC50≤32 nM)) | B (B represents a pKi value between 9 and 10 (Ki between 1 nM and 0.1 nM)) | B (B represents a pKi value between 9 and 10 (Ki between 1 nM and 0.1 nM)) | A (A represents a pEC50 value≥7.5 (EC50≤32 nM)) |  |  |
| COc1ccc2c(N[C@@H]3C[C@H]4CCC[C@@H](C3)N4CCC#N)nc(Nc3cc(C)[nH]n3)cc2n1 [Example 5-10] |  |  |  |  | A (A represents a pEC50 value≥7.5 (EC50≤32 nM)) | A (A represents a pKi value≥10 (Ki≤0.1 nM)) | A (A represents a pKi value≥10 (Ki≤0.1 nM)) | A (A represents a pEC50 value≥7.5 (EC50≤32 nM)) |  |  |
| Cc1cc(Nc2cc3ncccc3c(N[C@@H]3C[C@H]4CCC[C@@H](C3)N4CCF)n2)n[nH]1 [Example 1-39] |  |  |  |  | A (A represents a pEC50 value≥7.5 (EC50≤32 nM)) | B (B represents a pKi value between 9 and 10 (Ki between 1 nM and 0.1 nM)) | B (B represents a pKi value between 9 and 10 (Ki between 1 nM and 0.1 nM)) | A (A represents a pEC50 value≥7.5 (EC50≤32 nM)) |  |  |
| COc1ccnc2cc(Nc3cc(C)[nH]n3)nc(N[C@@H]3C[C@H]4CC[C@@H](C3)N4CCC#N)c12 [Example 7-6] |  |  |  |  |  | B (B represents a pKi value between 9 and 10 (Ki between 1 nM and 0.1 nM)) | B (B represents a pKi value between 9 and 10 (Ki between 1 nM and 0.1 nM)) |  | B (B represents a pEC50 value between 6.7 and 7.5 (EC50 between 200 nM and 32 nM)) | A (A represents a pEC50 value≥7.5 (EC50≤32 nM)) |
| Cc1cc(Nc2cc3ncccc3c(N[C@@H]3C[C@H]4CCC[C@@H](C3)N4S(=O)(=O)Cc3cccnc3)n2)n[nH]1 [Example 4-26] |  |  |  |  | B (B represents a pEC50 value between 6.7 and 7.5 (EC50 between 200 nM and 32 nM)) | B (B represents a pKi value between 9 and 10 (Ki between 1 nM and 0.1 nM)) | B (B represents a pKi value between 9 and 10 (Ki between 1 nM and 0.1 nM)) | B (B represents a pEC50 value between 6.7 and 7.5 (EC50 between 200 nM and 32 nM)) |  |  |
| Cc1cc(Nc2cc3nc(CN4CCOCC4)ccc3c(N[C@@H]3C[C@H]4CCC[C@@H](C3)N4S(C)(=O)=O)n2)n[nH]1 [Example 5-22] |  |  |  |  | A (A represents a pEC50 value≥7.5 (EC50≤32 nM)) | A (A represents a pKi value≥10 (Ki≤0.1 nM)) | A (A represents a pKi value≥10 (Ki≤0.1 nM)) | B (B represents a pEC50 value between 6.7 and 7.5 (EC50 between 200 nM and 32 nM)) |  |  |
| COc1cnc2cc(Nc3cc(C)[nH]n3)nc(N[C@@H]3C[C@H]4CC[C@@H](C3)N4Cc3ccncc3)c2c1 [Example 6-24] |  |  |  |  |  | B (B represents a pKi value between 9 and 10 (Ki between 1 nM and 0.1 nM)) | B (B represents a pKi value between 9 and 10 (Ki between 1 nM and 0.1 nM)) |  | B (B represents a pEC50 value between 6.7 and 7.5 (EC50 between 200 nM and 32 nM)) | B (B represents a pEC50 value between 6.7 and 7.5 (EC50 between 200 nM and 32 nM)) |
| COc1cnc2cc(Nc3cc(C)[nH]n3)nc(N[C@@H]3C[C@H]4CC[C@@H](C3)N4CCC(F)(F)F)c2c1 [Example 6-15] |  |  |  |  |  | B (B represents a pKi value between 9 and 10 (Ki between 1 nM and 0.1 nM)) | B (B represents a pKi value between 9 and 10 (Ki between 1 nM and 0.1 nM)) |  | A (A represents a pEC50 value≥7.5 (EC50≤32 nM)) | A (A represents a pEC50 value≥7.5 (EC50≤32 nM)) |
| Cc1cc(Nc2cc3ncccc3c(N[C@@H]3C[C@H]4CC[C@@H](C3)N4S(=O)(=O)C(C)C)n2)n[nH]1 [Example 4-2] | < 31.6 nM | 0.1 to 1 nM | 0.1 to 1 nM | < 31.6 nM |  |  |  |  |  |  |
| Cc1cc(Nc2cc3ncccc3c(N[C@@H]3C[C@H]4CC[C@@H](C3)N4S(=O)(=O)c3cncc(F)c3)n2)n[nH]1 [Example 4-15] | < 31.6 nM | 0.1 to 1 nM | 0.1 to 1 nM | < 31.6 nM |  |  |  |  |  |  |
| Cc1cc(Nc2cc3ncccc3c(N[C@@H]3C[C@H]4CC[C@@H](C3)N4Cc3ccncc3)n2)n[nH]1 [Example 1-17] |  |  |  |  | B (B represents a pEC50 value between 6.7 and 7.5 (EC50 between 200 nM and 32 nM)) | B (B represents a pKi value between 9 and 10 (Ki between 1 nM and 0.1 nM)) | B (B represents a pKi value between 9 and 10 (Ki between 1 nM and 0.1 nM)) | B (B represents a pEC50 value between 6.7 and 7.5 (EC50 between 200 nM and 32 nM)) |  |  |
| Cc1cc(Nc2cc3ncccc3c(N[C@@H]3C[C@H]4CCC[C@@H](C3)N4CCC(F)(F)F)n2)n[nH]1 [Example 1-44] |  |  |  |  | A (A represents a pEC50 value≥7.5 (EC50≤32 nM)) | B (B represents a pKi value between 9 and 10 (Ki between 1 nM and 0.1 nM)) | B (B represents a pKi value between 9 and 10 (Ki between 1 nM and 0.1 nM)) | A (A represents a pEC50 value≥7.5 (EC50≤32 nM)) |  |  |
| Cc1cc(Nc2cc3ncccc3c(N[C@@H]3C[C@H]4CCC[C@@H](C3)N4CCC#N)n2)n[nH]1 [Example 1-31] |  |  |  |  | A (A represents a pEC50 value≥7.5 (EC50≤32 nM)) | A (A represents a pKi value≥10 (Ki≤0.1 nM)) | A (A represents a pKi value≥10 (Ki≤0.1 nM)) | A (A represents a pEC50 value≥7.5 (EC50≤32 nM)) |  |  |
| CCS(=O)(=O)N1[C@@H]2CC[C@H]1C[C@H](Nc1nc(Nc3cc(C)[nH]n3)cc3nccc(OC)c13)C2 [Example 7-2] | < 31.6 nM | 0.1 to 1 nM | 0.1 to 1 nM | < 31.6 nM |  |  |  |  |  |  |
| Cc1cc(Nc2cc3ncc(S(C)(=O)=O)cc3c(N[C@@H]3C[C@H]4CCC[C@@H](C3)N4Cc3ccncc3)n2)n[nH]1 [Example 6-60] |  |  |  |  |  | A (A represents a pKi value≥10 (Ki≤0.1 nM)) | A (A represents a pKi value≥10 (Ki≤0.1 nM)) |  | B (B represents a pEC50 value between 6.7 and 7.5 (EC50 between 200 nM and 32 nM)) |  |
| Cc1cnc2c(F)c(Nc3cc(C)[nH]n3)nc(N[C@@H]3C[C@H]4CCC[C@@H](C3)N4S(C)(=O)=O)c2c1 [Example 8-22] |  |  |  |  |  | B (B represents a pKi value between 9 and 10 (Ki between 1 nM and 0.1 nM)) | B (B represents a pKi value between 9 and 10 (Ki between 1 nM and 0.1 nM)) |  | B (B represents a pEC50 value between 6.7 and 7.5 (EC50 between 200 nM and 32 nM)) | B (B represents a pEC50 value between 6.7 and 7.5 (EC50 between 200 nM and 32 nM)) |
| Cc1cc(Nc2cc3ncccc3c(N[C@@H]3C[C@H]4CC[C@@H](C3)N4CC(C)C#N)n2)n[nH]1 (stereo partly shown) [Example 1-23] |  |  |  |  | A (A represents a pEC50 value≥7.5 (EC50≤32 nM)) | A (A represents a pKi value≥10 (Ki≤0.1 nM)) | A (A represents a pKi value≥10 (Ki≤0.1 nM)) | A (A represents a pEC50 value≥7.5 (EC50≤32 nM)) |  |  |
| Cc1cc(Nc2nc(N[C@@H]3C[C@H]4CCC[C@@H](C3)N4S(=O)(=O)c3cccnc3)c3cccnc3c2F)n[nH]1 [Example 8-12] |  |  |  |  |  | B (B represents a pKi value between 9 and 10 (Ki between 1 nM and 0.1 nM)) | B (B represents a pKi value between 9 and 10 (Ki between 1 nM and 0.1 nM)) |  | A (A represents a pEC50 value≥7.5 (EC50≤32 nM)) | A (A represents a pEC50 value≥7.5 (EC50≤32 nM)) |
| COc1cnc2cc(Nc3cc(C)[nH]n3)nc(N[C@@H]3C[C@H]4CCC[C@@H](C3)N4Cc3ccncc3)c2c1 [Example 6-28] |  |  |  |  |  | B (B represents a pKi value between 9 and 10 (Ki between 1 nM and 0.1 nM)) | B (B represents a pKi value between 9 and 10 (Ki between 1 nM and 0.1 nM)) |  | A (A represents a pEC50 value≥7.5 (EC50≤32 nM)) | A (A represents a pEC50 value≥7.5 (EC50≤32 nM)) |
| COc1ccc2c(N[C@@H]3C[C@H]4CC[C@@H](C3)N4C(=O)C3(C(F)(F)F)CC3)nc(Nc3cc(C)[nH]n3)cc2n1 [Example 5-6] | < 31.6 nM | 0.1 to 1 nM | 0.1 to 1 nM | < 31.6 nM |  |  |  |  |  |  |
| Cc1cc(Nc2cc3nc(CO)ccc3c(N[C@@H]3C[C@H]4CC[C@@H](C3)N4CCCF)n2)n[nH]1 [Example 5-14] |  |  |  |  | B (B represents a pEC50 value between 6.7 and 7.5 (EC50 between 200 nM and 32 nM)) | B (B represents a pKi value between 9 and 10 (Ki between 1 nM and 0.1 nM)) | B (B represents a pKi value between 9 and 10 (Ki between 1 nM and 0.1 nM)) | B (B represents a pEC50 value between 6.7 and 7.5 (EC50 between 200 nM and 32 nM)) |  |  |
| Cc1cc(Nc2cc3ncccc3c(N[C@@H]3C[C@H]4CCC[C@@H](C3)N4CCCF)n2)n[nH]1 [Example 1-40] |  |  |  |  | A (A represents a pEC50 value≥7.5 (EC50≤32 nM)) | B (B represents a pKi value between 9 and 10 (Ki between 1 nM and 0.1 nM)) | B (B represents a pKi value between 9 and 10 (Ki between 1 nM and 0.1 nM)) | A (A represents a pEC50 value≥7.5 (EC50≤32 nM)) |  |  |
| Cc1cc(Nc2cc3ncccc3c(N[C@@H]3C[C@H]4CCC[C@@H](C3)N4C(=O)c3ccnc(C#N)c3)n2)n[nH]1 [Example 2-30] |  |  |  |  | C (C represents a pEC50 value<6.7 (EC50>200 nM)) | B (B represents a pKi value between 9 and 10 (Ki between 1 nM and 0.1 nM)) | B (B represents a pKi value between 9 and 10 (Ki between 1 nM and 0.1 nM)) |  |  |  |
